Results as given in patent US20230406864A1, “7-AZOLE SUBSTITUTED 2-AMINOQUINAZOLINE INHIBITORS OF HPK1” (MERCK SHARP & DOHME LLC, priority 2020, published 2023).
pIC50: −log10 of the molar value.

Each compound was assayed against T1, Human HPK1, catalytic domain (Homo sapiens, UniProt Q92918) (assay: HPK1-SLP76 TR-FRET assay). Conditions: HPK1 kinase domain 0.075 nM; full length SLP-76 10 nM; ATP 10 μM; 30 min preincubation; 60 min reaction; room temperature.
T1 construct: purchased Cama (so in the source)
T1 sequence (Q92918 1-346): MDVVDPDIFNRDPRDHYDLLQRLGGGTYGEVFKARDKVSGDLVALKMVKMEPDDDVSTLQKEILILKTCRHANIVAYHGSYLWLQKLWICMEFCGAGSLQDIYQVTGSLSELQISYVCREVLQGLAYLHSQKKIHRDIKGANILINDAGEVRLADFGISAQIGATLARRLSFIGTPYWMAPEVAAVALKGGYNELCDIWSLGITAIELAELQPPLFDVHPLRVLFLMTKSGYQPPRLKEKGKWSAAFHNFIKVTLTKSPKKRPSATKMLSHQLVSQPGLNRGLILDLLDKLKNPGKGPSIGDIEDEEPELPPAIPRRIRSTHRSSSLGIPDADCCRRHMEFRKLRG
Format: biochemical
Cc1c(-c2cc3nc(Nc4cc5n(n4)CCN(C(C)C)C(=O)C5)ncc3c(N)c2F)cnc2c1NCCO2 [Example 2-20, 2-{[5-amino-6-fluoro-7-(8-methyl-2,3-dihydro-1H-pyrido[2,3-b][1,4]oxazin-7-yl)quinazolin-2-yl]amino}-6-(propan-2-yl)-7,8-dihydro-4H-pyrazolo[1,5-d][1,4]diazepin-5(6H)-one] gave a pIC50 of 10.20. CCn1cc(Nc2ncc3c(N)c(F)c(-c4cnc5c(c4C)NCCO5)cc3n2)cn1 [Example 2-22, N~2~-(1-ethyl-1H-pyrazol-4-yl)-6-fluoro-7-(8-methyl-2,3-dihydro-1H-pyrido[2,3-b][1,4]oxazin-7-yl)quinazoline-2,5-diamine] showed a pIC50 of 10.12. Cc1c(-c2cc3nc(Nc4cnn(C5CCC5)c4)ncc3c(N)c2F)cnc2c1NCCO2 [Example 2-23, N~2~-(1-cyclobutyl-1H-pyrazol-4-yl)-6-fluoro-7-(8-methyl-2,3-dihydro-1H-pyrido[2,3-b][1,4]oxazin-7-yl)quinazoline-2,5-diamine] was tested, and the pIC50 was 9.72. Work on Cc1c(-c2cc3nc(Nc4cnn(CC(C)(C)O)c4)ncc3c(N)c2F)cnc2c1NCCO2 [Example 2-24, 1-(4-{[5-amino-6-fluoro-7-(8-methyl-2,3-dihydro-1H-pyrido[2,3-b][1,4]oxazin-7-yl)quinazolin-2-yl]amino}-1H-pyrazol-1-yl)-2-methylpropan-2-ol] yielded a pIC50 of 8.96. Cc1c(-c2cc3nc(Nc4cnn(C5CC5)c4Cl)ncc3c(N)c2F)cnc2c1NCCO2 [Example 2-25, N~2~-(5-chloro-1-cyclopropyl-1H-pyrazol-4-yl)-6-fluoro-7-(8-methyl-2,3-dihydro-1H-pyrido[2,3-b][1,4]oxazin-7-yl)quinazoline-2,5-diamine] showed a pIC50 of 9.31. Cc1c(-c2cc3nc(Nc4cnn(C5(C)CC5)c4Cl)ncc3c(N)c2F)cnc2c1NCCO2 [Example 2-26, N~2~-[5-chloro-1-(1-methylcyclopropyl)-1H-pyrazol-4-yl]-6-fluoro-7-(8-methyl-2,3-dihydro-1H-pyrido[2,3-b][1,4]oxazin-7-yl)quinazoline-2,5-diamine] gave a pIC50 of 9.42. Work on CCn1cc(Nc2ncc3c(N)c(F)c(-c4cnc5c(c4C)NCCO5)cc3n2)c(C)n1 [Example 2-27, N~2~-(1-ethyl-3-methyl-1H-pyrazol-4-yl)-6-fluoro-7-(8-methyl-2,3-dihydro-1H-pyrido[2,3-b][1,4]oxazin-7-yl)quinazoline-2,5-diamine] yielded a pIC50 of 9.00. CNC(=O)C12CC(n3cc(Nc4ncc5c(N)c(F)c(-c6cnc7c(c6C)NCCO7)cc5n4)cn3)(C1)C2 [Example 2-28, 3-(4-{[5-amino-6-fluoro-7-(8-methyl-2,3-dihydro-1H-pyrido[2,3-b][1,4]oxazin-7-yl)quinazolin-2-yl]amino}-1H-pyrazol-1-yl)-N-methylbicyclo[1.1.1]pentane-1-carboxamide] was tested, and the pIC50 was 10.03. Cc1c(-c2cc3nc(Nc4cnn(C(F)F)c4C)ncc3c(N)c2F)cnc2c1NCCO2 [Example 2-29, N~2~-[1-(difluoromethyl)-5-methyl-1H-pyrazol-4-yl]-6-fluoro-7-(8-methyl-2,3-dihydro-1H-pyrido[2,3-b][1,4]oxazin-7-yl)quinazoline-2,5-diamine] showed a pIC50 of 10.00. Work on Cc1c(-c2cc3nc(Nc4cnn(C)c4C)ncc3c(N)c2F)cnc2c1NCCO2 [Example 2-30, N~2~-(1,5-dimethyl-1H-pyrazol-4-yl)-6-fluoro-7-(8-methyl-2,3-dihydro-1H-pyrido[2,3-b][1,4]oxazin-7-yl)quinazoline-2,5-diamine] yielded a pIC50 of 10.29. With Cc1nn(CC(F)F)cc1Nc1ncc2c(N)c(F)c(-c3cnc4c(c3C)NCCO4)cc2n1 [Example 2-31, N~2~-[1-(2,2-difluoroethyl)-3-methyl-1H-pyrazol-4-yl]-6-fluoro-7-(8-methyl-2,3-dihydro-1H-pyrido[2,3-b][1,4]oxazin-7-yl)quinazoline-2,5-diamine] the pIC50 was 9.70. Cc1c(-c2cc3nc(Nc4cnn(CC(F)F)c4)ncc3c(N)c2F)cnc2c1NCCO2 [Example 2-32, N~2~-[1-(2,2-difluoroethyl)-1H-pyrazol-4-yl]-6-fluoro-7-(8-methyl-2,3-dihydro-1H-pyrido[2,3-b][1,4]oxazin-7-yl)quinazoline-2,5-diamine] gave a pIC50 of 10.27. Cc1nn(C(C)C)cc1Nc1ncc2c(N)c(F)c(-c3cnc4c(c3C)NCCO4)cc2n1 [Example 2-33, 6-fluoro-7-(8-methyl-2,3-dihydro-1H-pyrido[2,3-b][1,4]oxazin-7-yl)-N~2~-[3-methyl-1-(propan-2-yl)-1H-pyrazol-4-yl]quinazoline-2,5-diamine] was tested, and the pIC50 was 8.46. Cc1nn(C)cc1Nc1ncc2c(N)c(F)c(-c3cnc4c(c3C)NCCO4)cc2n1 [Example 2-34, N~2~-(1,3-dimethyl-1H-pyrazol-4-yl)-6-fluoro-7-(8-methyl-2,3-dihydro-1H-pyrido[2,3-b][1,4]oxazin-7-yl)quinazoline-2,5-diamine] was tested, and the pIC50 was 10.24. Cc1c(-c2cc3nc(Nc4cnn5c4CCC5)ncc3c(N)c2F)cnc2c1NCCO2 [Example 2-35, N~2~-(5,6-dihydro-4H-pyrrolo[1,2-b]pyrazol-3-yl)-6-fluoro-7-(8-methyl-2,3-dihydro-1H-pyrido[2,3-b][1,4]oxazin-7-yl)quinazoline-2,5-diamine] gave a pIC50 of 10.29. Cc1nsc(Nc2ncc3c(N)c(F)c(-c4cnc5c(c4C)NCCO5)cc3n2)c1Cl [Example 2-36, N~2~-(4-chloro-3-methyl-1,2-thiazol-5-yl)-6-fluoro-7-(8-methyl-2,3-dihydro-1H-pyrido[2,3-b][1,4]oxazin-7-yl)quinazoline-2,5-diamine] gave a pIC50 of 9.55. With Cc1cnsc1Nc1ncc2c(N)c(F)c(-c3cnc4c(c3C)NCCO4)cc2n1 [Example 2-37, 6-fluoro-7-(8-methyl-2,3-dihydro-1H-pyrido[2,3-b][1,4]oxazin-7-yl)-N~2~-(4-methyl-1,2-thiazol-5-yl)quinazoline-2,5-diamine] the pIC50 was 10.15. Work on CCn1ncc(Nc2ncc3c(N)c(F)c(-c4cnc5c(c4C)NCCO5)cc3n2)c1F [Example 2-38, N~2~-(1-ethyl-5-fluoro-1H-pyrazol-4-yl)-6-fluoro-7-(8-methyl-2,3-dihydro-1H-pyrido[2,3-b][1,4]oxazin-7-yl)quinazoline-2,5-diamine] yielded a pIC50 of 9.24. Cc1c(-c2cc3nc(Nc4cnn(C5COC5)c4)ncc3c(N)c2F)cnc2c1NCCO2 [Example 2-39, 6-fluoro-7-(8-methyl-2,3-dihydro-1H-pyrido[2,3-b][1,4]oxazin-7-yl)-N~2~-[1-(oxetan-3-yl)-1H-pyrazol-4-yl]quinazoline-2,5-diamine] was tested, and the pIC50 was 10.29. Work on CNC(=O)Cn1cc(Nc2ncc3c(N)c(F)c(-c4cnc5c(c4C)NCCO5)cc3n2)c(C)n1 [Example 2-40, 2-(4-{[5-amino-6-fluoro-7-(8-methyl-2,3-dihydro-1H-pyrido[2,3-b][1,4]oxazin-7-yl)quinazolin-2-yl]amino}-3-methyl-1H-pyrazol-1-yl)-N-methylacetamide] yielded a pIC50 of 9.57. In the case of CNC(=O)C(C)(C)n1cc(Nc2ncc3c(N)c(F)c(-c4cnc5c(c4C)NCCO5)cc3n2)cn1 [Example 2-41, 2-(4-{[5-amino-6-fluoro-7-(8-methyl-2,3-dihydro-1H-pyrido[2,3-b][1,4]oxazin-7-yl)quinazolin-2-yl]amino}-1H-pyrazol-1-yl)-N,2-dimethylpropanamide], the pIC50 was 9.08.
